Consider seven compounds from ChEMBL document CHEMBL1201862, “PubChem BioAssay data set” (2004).

Common to all, as to assay: NCI anticancer screen, dose series, 48 h
Test [1] concerns HCT-15.
Test [2] has as its system NCI-H226.
The subject of test [3] is KM12.
Test [4] concerns OVCAR-5.
In test [5] the test system is UACC-62.
The test system of test [6] is SK-MEL-2.
The test system of test [7] is CCRF-CEM.
The subject of test [8] is UO-31.
Test [9] deals with HT-29.
For test [10], the system named is OVCAR-3.
Test [11] concerns SW-620.
Test [12] has as its system HCT-116.
Test [13] relates to K562.
In test [14] the test system is COLO 205.
In test [15] the test system is IGROV-1.
In test [16] the test system is SK-OV-3.
For test [17], the system named is SN12C.
Test [18] relates to EKVX.
The test system of test [19] is LOX IMVI.
Test [20] has as its system RPMI-8226.

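A five-concentration, 48-hour dose response in 96-well plates underlies each endpoint, interpolated linearly between surrounding concentrations. GI50 is the concentration that inhibits growth by half.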 The source made the active and inactive calls. Cut-off read from the data, not from the text of the source: active = GI50 up to about 1.1 µM and inactive = higher.

Regarding `O=C1CCCCN1`, the GI50 in test [1] was over 1120 µM; in [2] it was 635 µM (inactive); in test [3], > 1120 µM (inactive); in [4], > 1120 µM (inactive); in test [5], > 411 µM (inactive); in [6], > 1120 µM (inactive). The GI50 in test [7], in test [8], in test [9], in test [10], in [11] and in test [12] was > 1120 µM (inactive) in each case. Also, the GI50 in test [13] is > 1120 µM (inactive); in test [14], > 1120 µM (inactive); in test [15] it was > 1120 µM (inactive); in test [16] it was > 150 µM (inactive); in [17], > 267 µM (inactive); in [18], > 258 µM (inactive). Besides, the GI50 in test [19] and in test [20] was > 1120 µM (inactive) throughout.

As for `O=NN1C(c2ccccc2)CNC(=O)CC1c1ccccc1` (stereo not given), the GI50 is 36 µM in test [1]; 68.5 µM (inactive) in test [2]; 42.9 µM (inactive) in [3]; > 100 µM (inactive) in test [4]; 44.4 µM (inactive) in [5]; 33.7 µM (inactive) in test [6]. The GI50 in [7] was 35.3 µM (inactive); in test [8], 36.3 µM (inactive); in test [9] it was 28.6 µM (inactive); in test [10] it was 22.8 µM (inactive); in [11], 38.1 µM (inactive); in test [12] it was 38.5 µM (inactive). Besides, the GI50 in test [13] was 22.6 µM (inactive); in [14] it was 25.8 µM (inactive); in [15] it was 63.5 µM (inactive); in [16], 42 µM (inactive); in test [17], 53 µM (inactive); in test [18] it was 35.4 µM (inactive). The GI50 in test [19] was 46.7 µM (inactive); in test [20], 34 µM (inactive).

In the case of `NC12CCC(CC1=O)C2` (stereo not given), the GI50 in [1] was over 100 µM; in test [2], > 100 µM (inactive); in test [3], > 100 µM (inactive); in test [4], > 100 µM (inactive); in [5], > 100 µM (inactive); in test [6] it was > 100 µM (inactive). Moreover, the GI50 in test [7], in test [8], in test [9], in test [10], in test [11] and in test [12] was > 100 µM (inactive) in each case. Moreover, the GI50 in test [13], in test [14], in test [15], in [16], in test [17] and in test [18] was > 100 µM (inactive) throughout. For the same compound, the GI50 in [19] and in test [20] was > 100 µM (inactive) each time.

For `COc1ccc(C[C@H](N)C(=O)N2C[C@H](CO)C[C@H](n3cnc4c(N(C)C)ncnc43)C2)cc1`, the GI50 in [1] was over 100 µM; in test [2], > 100 µM (inactive); in test [3], > 100 µM (inactive); in [4], > 100 µM (inactive); in test [5], > 100 µM (inactive); in [6] it was > 100 µM (inactive). Also, the GI50 in test [7], in [8], in test [9], in [10], in [11] and in test [12] was > 100 µM (inactive) each time. Moreover, the GI50 in test [13], in [14], in test [15], in test [16], in [17] and in test [18] was > 100 µM (inactive) each time. For the same compound, the GI50 in test [19] and in test [20] was > 100 µM (inactive) each time.

Turning to `O=c1cc(-c2nc3ccccc3[nH]2)[nH]c2nc(-c3nc4ccccc4[nH]3)cc(-c3ccc(Cl)cc3)c12`, the GI50 in test [1] was 10 µM; in test [2], 16.9 µM (inactive); in test [3], 22 µM (inactive); in [4], 29 µM (inactive); in [5] it was 14 µM (inactive); in [6] it was 12.2 µM (inactive). Besides, the GI50 in test [7] is 24.7 µM (inactive); in test [8], 11.2 µM (inactive); in test [9], 20 µM (inactive); in test [10], 19.3 µM (inactive); in test [11], 21.5 µM (inactive); in test [12], 17 µM (inactive). For the same compound, the GI50 in [13] is 16.1 µM (inactive); in test [14] it was 12.1 µM (inactive); in test [15], 1.42 µM (inactive); in [16] it was 15.3 µM (inactive); in [17], 16.5 µM (inactive); in test [18], 23.3 µM (inactive). Moreover, the GI50 in [19] was 15.5 µM (inactive); in [20], 11.5 µM (inactive).

`COC1C(=[N+]=[N-])C(=O)NC(=O)N1C1OC(COC(c2ccccc2)(c2ccccc2)c2ccccc2)C(O)C1O` (stereo not given): the GI50 was 18 µM in test [1]; 17.5 µM (inactive) in test [2]; 16.9 µM (inactive) in [3]; 17.8 µM (inactive) in test [4]; 15.1 µM (inactive) in test [5]; 19.1 µM (inactive) in test [6]. The GI50 is 16.5 µM (inactive) in test [7]; 18.2 µM (inactive) in test [8]; 18.7 µM (inactive) in test [9]; 18.7 µM (inactive) in test [10]; 18.5 µM (inactive) in test [11]; 18.2 µM (inactive) in test [12]. For the same compound, the GI50 was 19.7 µM (inactive) in [13]; 19.6 µM (inactive) in [14]; 20.6 µM (inactive) in [15]; 20.5 µM (inactive) in [16]; 16.3 µM (inactive) in test [17]; 19 µM (inactive) in test [18]. For the same compound, the GI50 was 15.5 µM (inactive) in test [19] and 25.2 µM (inactive) in test [20].

As to `O=C1Cc2c(-c3ccccc3)cc(-c3ccccc3)nc2-c2ccccc2N1`, the GI50 in test [1] was 1.57 µM; in test [2], 5.5 µM (inactive); in test [3], 2.84 µM (inactive); in test [4], 3.54 µM (inactive); in [5], 6.89 µM (inactive); in test [6] it was 2.66 µM (inactive). The GI50 in [7] was 17.2 µM (inactive); in [8] it was 3.71 µM (inactive); in test [9] it was 3.61 µM (inactive); in [10], 5.56 µM (inactive); in [11], 5.47 µM (inactive); in test [12], 2.24 µM (inactive). For the same compound, the GI50 is 8.02 µM (inactive) in test [13]; 2.21 µM (inactive) in test [14]; 18.6 µM (inactive) in [15]; 5.22 µM (inactive) in test [16]; 4.04 µM (inactive) in test [17]; 13.2 µM (inactive) in test [18]. Moreover, the figures for the GI50 in test [19] and in test [20] were 4.37 µM (inactive) and 39.7 µM (inactive), respectively.
